{"source": "patent US20260240802A1", "about": "“USE OF MYRIOCIN AS ADJUVANT IN GLAUCOMA SURGERY” (priority 2023, published 2026)", "key": {"fibroblasts [1]": {"test_system": "fibroblasts", "settings": "Josamycin 69.4 μg/ml (JM69.4); cited from earlier work"}, "postoperative fibrosis": {"test_system": "postoperative fibrosis", "settings": "after 5 years, mitomycin C in intraoperative therapy (before: 24-74% after 4 years); cited from earlier work"}, "human dermic fibroblasts [2]": {"test_system": "human dermic fibroblasts", "test": "Scratch test assay", "assay_type": "cell-based", "procedure": "(§1) The fibroblasts, cultivated in culture medium DMEM (EuroClone) additioned with 10% of Fetal Bovine Serum (EuroClone) and 1% of penicillin/streptomycin (Sigma-Aldrich), were kept in incubator at 37° C., 5% of CO2 until reaching the full confluence which corresponds approximately to 1.2-1.3*10^6 cells. After detachment from the culture flasks (T75) with a solution of trypsin/EDTA, 1.5-2.5*10^5 or 4.0*10^5 fibroblasts were respectively plated in 60-mm or 100-mm wide Petri dishes for the subsequent treatments.\nIn six-well plates, 150,000 fibroblasts/well were plated and left to proliferate until reaching a confluence of 80-90%. At this point, defined time zero (T0), the cellular monolayer is damaged by creating a vertical groove corresponding to the well diameter."}, "human dermic fibroblasts [3]": {"test_system": "human dermic fibroblasts", "assay_type": "cell-based", "settings": "for total cells after 24 hours of treatment: human", "procedure": "as §1\nThe fibroblasts, cultivated in ninety-six-well plates, were divided into the experimental groups: ctr, Mito and Myr. 24 hours after sowing (T0), the controls were collected for counting the live and dead cells and one proceeded with the treatment of the groups Mito and Myr for the subsequent 24 hours, with the respective substances. After detachment with a solution of trypsin/EDTA, the fibroblasts were isolated by centrifugation (100 g×6 minutes) and the obtained precipitate was resuspended in phosphate buffer. To the cellular suspension, 10% of 0.4% Trypan Blue dye solution was added. The live cells and the dead cells, coloured blue for the intracellular permeation of the dye through the damaged plasmatic membrane, are counted by using Bürker camera (Fabiani C., et al., Naunyn-Schmiedebergs Arch. Pharmacol. 2017; 390:741-751)."}, "[4]": {"test_system": "αSMA (α Smooth Muscle Actin)", "test": "RT-PCR expression of transcript αSMA in fibroblasts", "assay_type": "cell-based, human", "settings": "myriocin 50 μM 1 hour pretreatment + 24 hours with TGFβ 5 ng/ml", "procedure": "(§2) Expression of the transcript (mRNA) of αSMA, CTGF, MMP-9 evaluated by RT-PCR, in fibroblasts: control (ctr); stimulated with TGFβ (TGFβ); pretreated 1 hour with Myriocin and for the subsequent 24 hours in combination with TGFβ (Myr/TGFβ); pretreated 5 minutes with Mitomycin C, washed and treated for the subsequent 24 hours with TGFβ (Mito/TGFβ); pretreated 1 hour with Myriocin and for the subsequent 24 hours with Myriocin (Myr); pretreated 5 minutes with Mitomycin C, washed and for the subsequent 24 hours with culture medium (Mito). The results represent the average±standard error of 5 experiments and they are represented as variation with respect to the control (ratio between the expression in the various groups and the control). The control is set equal to 1 and designated in figure with the dotted line. […]\n(§3) The following transcripts of interest were analysed: • αSMA (α Smooth Muscle Actin): marker of the activation of the fibroblasts to miofibroblasts; • CTGF (Connective Tissue Growth Factor): protein of the extracellular matrix with pro-fibrotic activity; • MMP-9 (Matrix metalloproteinase 9): enzyme which degrades the proteins of the extracellular matrix."}, "[5]": {"test_system": "CTGF (Connective Tissue Growth Factor)", "test": "RT-PCR expression of transcript CTGF in fibroblasts", "assay_type": "cell-based, human", "settings": "myriocin 50 μM 1 hour pretreatment + 24 hours with TGFβ 5 ng/ml", "procedure": "as §2, §3"}, "human dermic fibroblasts [6]": {"test_system": "human dermic fibroblasts", "assay_type": "cell-based", "settings": "fibroblasts activated with TGFβ, compared with mitomycin C", "procedure": "The anti-fibrotic activity of myriocin, compared to that of mitomycin C, was evaluated in vitro by using human dermic fibroblasts of healthy subjects, available commercially.\nas §1\nThe cells were divided into six experimental groups: • 1. control group without treatment (denominated ctr) • 2. group treated with TGFβ (denominated TGFβ) • 3. group treated with Myriocin and TGFβ (denominated Myr/TGFβ) • 4. group treated with Mitomycin C and TGFβ (denominated Mito/TGFβ) • 5. group treated with Myriocin (denominated Myr) • 6. group treated with Mitomycin C (denominated Mito)\nOn the day of treatment, in groups ctr, TGFβ, Myr, Myr/TGFβ the culture medium was replaced by fresh medium. The groups Myr and Myr/TGFβ were pretreated for 1 hour with myriocin 5 mM (Sigma-Aldrich) so as to obtain a final concentration of 50 μM. […]"}, "[7]": {"test_system": "MMP-9 (Matrix metalloproteinase 9)", "test": "RT-PCR expression of transcript MMP-9 in fibroblasts", "assay_type": "cell-based, human", "settings": "myriocin 50 μM 1 hour pretreatment + 24 hours with TGFβ 5 ng/ml", "procedure": "as §2, §3"}, "collagen": {"test_system": "collagen", "test": "transcription and translation of collagen in fibroblasts (FIG. 4)", "assay_type": "cell-based", "settings": "pre-treated 1 hour with Myriocin 50 µM, then 24 hours in combination with TGFβ 5 ng/ml", "procedure": "FIG. 4: Ctrl: not treated fibroblasts; TGFβ: fibroblasts treated 24 hours with TGFβ 5 ng/ml; TGFβ/Myr: fibroblasts pre-treated 1 hour with Myriocin 50 µM and for subsequent 24 hours in combination with TGFβ 5 ng/ml; TGFβ/Mito: fibroblasts pre-treated 5 minutes with Mitomycin 50 µM, and for subsequent 24 hours with TGFβ 5 ng/ml in absence of Mitomycin."}, "[8]": {"molecular_target": "T1, serine-palmitoyl transferase (Homo sapiens, UniProt O15269+O15270)", "T1 construct": "the fibroblasts were isolated by centrifugation; endogenous in cells", "T1 sequence (O15269 1-473)": "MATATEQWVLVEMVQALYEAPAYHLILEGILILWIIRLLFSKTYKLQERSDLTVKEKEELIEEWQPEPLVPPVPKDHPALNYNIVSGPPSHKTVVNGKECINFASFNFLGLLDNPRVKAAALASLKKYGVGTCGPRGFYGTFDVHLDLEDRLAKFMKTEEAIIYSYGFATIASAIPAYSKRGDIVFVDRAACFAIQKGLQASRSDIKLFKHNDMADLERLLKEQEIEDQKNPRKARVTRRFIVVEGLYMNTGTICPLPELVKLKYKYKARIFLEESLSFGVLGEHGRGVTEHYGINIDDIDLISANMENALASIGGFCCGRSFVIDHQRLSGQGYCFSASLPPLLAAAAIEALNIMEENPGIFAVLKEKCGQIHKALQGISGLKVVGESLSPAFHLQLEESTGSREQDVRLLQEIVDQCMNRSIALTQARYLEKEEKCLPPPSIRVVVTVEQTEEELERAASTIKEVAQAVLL", "T1 sequence (O15270 1-562)": "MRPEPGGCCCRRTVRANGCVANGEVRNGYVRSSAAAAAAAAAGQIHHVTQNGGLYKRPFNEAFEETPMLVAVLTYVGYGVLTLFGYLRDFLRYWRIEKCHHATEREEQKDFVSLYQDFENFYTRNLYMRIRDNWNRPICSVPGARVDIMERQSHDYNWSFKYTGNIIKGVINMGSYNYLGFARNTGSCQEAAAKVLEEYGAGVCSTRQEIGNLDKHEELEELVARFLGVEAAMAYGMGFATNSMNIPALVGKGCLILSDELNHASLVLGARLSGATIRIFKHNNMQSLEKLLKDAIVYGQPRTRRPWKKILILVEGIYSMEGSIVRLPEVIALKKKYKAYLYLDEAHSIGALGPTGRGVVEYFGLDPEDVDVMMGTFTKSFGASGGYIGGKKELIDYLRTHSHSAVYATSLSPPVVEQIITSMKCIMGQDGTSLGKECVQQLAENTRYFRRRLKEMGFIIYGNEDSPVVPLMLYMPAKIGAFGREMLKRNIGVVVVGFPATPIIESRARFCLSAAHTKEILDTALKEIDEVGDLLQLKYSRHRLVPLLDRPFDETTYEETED", "T1 sequence (Q969W0 1-71 partner)": "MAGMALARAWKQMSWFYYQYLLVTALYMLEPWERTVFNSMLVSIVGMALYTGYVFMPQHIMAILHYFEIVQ", "test": "mass spectrometry of the ceramide content of fibroblasts", "assay_type": "cell-based", "settings": "myriocin 50 μM", "procedure": "On the day of treatment, in groups ctr, TGFβ, Myr, Myr/TGFβ the culture medium was replaced by fresh medium. The groups Myr and Myr/TGFβ were pretreated for 1 hour with myriocin 5 mM (Sigma-Aldrich) so as to obtain a final concentration of 50 μM. […] The pretreatment with mitomycin C, lasting 5 minutes to simulate the administration time in the operating room of the drug on the patient suffering from glaucoma, was interrupted by two washes, each one lasting 2 minutes, with phosphate buffer (PBS). To the groups TGFβ, Myr/TGFβ and Mito/TGFβ, TGFβ 200 ng/ml is then added to obtain a final concentration of 5 ng/ml, as reported in literature (Wu N. et al., Mol Cell Biochem. 2020; 470:175-188). The fibroblasts were then put in incubator for 24 hours, until performing the different analyses.\nAfter detachment with a solution of trypsin/EDTA, the fibroblasts were isolated by centrifugation (100 g×6 minutes). The obtained precipitate was resuspended in phosphate buffer (PBS), centrifuged at 100 g×6 minutes, resuspended again in phosphate buffer (PBS) and centrifuged at 500 g×5 minutes at 4° C. The precipitate was resuspended in 100 μl of PBS containing a mixture of protease inhibitors (Protease Inhibitor Cocktails, EDTA-free, Roche) and kept at −20° C. until use. The extraction of the lipids and the analysis of the samples for evaluating the ceramide content, whose synthesis is locked by inhibiting the enzyme serine-palmitoyl transferase by Myr, follow published protocols (Morano C. et al., Metabolites. 2022; 12 (5): 450)."}, "fibroblasts [9]": {"test_system": "fibroblasts", "test": "proliferation/vitality MTT assay", "assay_type": "cell-based", "settings": "24 hours, Myriocin 50 μM, not treated fibroblasts = 100%", "procedure": "These proliferation data result to be an improvement with respect to those obtained by the authors with JM47.2, which is equivalent to a concentration of approximately 56 μM, not considered among the effective concentrations in anti-fibrotic sense."}}, "note": "“Also recorded” adds a separate entry of the source. Like-named read-outs stand apart in the source and are kept apart here.", "data": [{"smiles": "CO[C@@H]1[C@@H](O[C@@H]2O[C@H](C)[C@@H](O[C@H]3C[C@@](C)(O)[C@@H](OC(=O)CC(C)C)[C@H](C)O3)[C@H](N(C)C)[C@H]2O)[C@@H](CC=O)C[C@@H](C)[C@@H](O)/C=C/C=C/C[C@@H](C)OC(=O)C[C@H]1OC(C)=O", "note": "[Josamycin]", "values": [{"measurement": "proliferation percentage of the fibroblasts", "setting": "fibroblasts [1]", "value": "less than 50%"}]}, {"smiles": "CO[C@@]12[C@H](COC(N)=O)C3=C(C(=O)C(C)=C(N)C3=O)N1C[C@@H]1N[C@@H]12", "note": "[Mitomycin C]", "values": [{"measurement": "percentage of failure of the surgical therapy", "setting": "postoperative fibrosis", "value": "23-51%"}, {"measurement": "cellular death", "setting": "human dermic fibroblasts [2]; 50 μM, 24 and 48 hours", "value": "induced a progressive cellular death"}, {"measurement": "migration of fibroblasts after damage of the cellular carpet", "setting": "human dermic fibroblasts [2]; 50 μM, 24 and 48 hours, listed as Mitomycin", "value": "migrate only partially"}, {"measurement": "migration of fibroblasts after damage of the cellular carpet", "setting": "human dermic fibroblasts [2]; 50 μM, 24 and 48 hours, listed as mitomycin C", "value": "reduced the migration of fibroblasts"}, {"measurement": "morphological change of fibroblasts", "setting": "human dermic fibroblasts [2]; between T1 (24 hours) and T2 (48 hours)", "value": "progressive morphological change (from tapering to rounded)"}, {"measurement": "change of total cells after 24 hours", "setting": "human dermic fibroblasts [3]", "value": "halved"}, {"measurement": "total cells after 24 hours of treatment", "setting": "human dermic fibroblasts [3]", "value": 5466, "unit": "total cells/well"}]}, {"smiles": "CCCCCCC(=O)CCCCCC/C=C/C[C@@H](O)[C@H](O)[C@@](N)(CO)C(=O)O", "note": "[Myriocin]", "values": [{"measurement": "reduction of αSMA transcript expression increase induced by TGFβ", "setting": "[4]", "value": "more effective than mitomycin C; also recorded: reduces the expression of αSMA"}, {"measurement": "reduction of CTGF transcript expression increase induced by TGFβ", "setting": "[5]", "value": "more effective than mitomycin C"}, {"measurement": "migration of fibroblasts after damage of the cellular carpet", "setting": "human dermic fibroblasts [2]; 50 μM, 24 and 48 hours", "value": "migrate only partially"}, {"measurement": "migration of fibroblasts after damage of the cellular carpet", "setting": "human dermic fibroblasts [2]; 50 μM, 24 and 48 hours, listed as myriocin", "value": "reduced the migration of fibroblasts"}, {"measurement": "anti-fibrotic efficacy", "setting": "human dermic fibroblasts [6]", "value": "comparable to mitomycin C"}, {"measurement": "anti-fibrotic efficacy", "setting": "human dermic fibroblasts [6]; listed as myriocin", "value": "comparable to that of the drug mitomycin C"}, {"measurement": "reduction of MMP-9 transcript expression increase induced by TGFβ", "setting": "[7]", "value": "more effective than mitomycin C; also recorded: reducing the expression of MMP-9"}, {"measurement": "transcription (panel A) and translation (panel B) of collagen", "setting": "collagen", "value": "capable of controlling the transcription (panel A) and the translation (panel B) of collagen"}, {"measurement": "reduction of ceramide level with respect to basal ctr", "setting": "[8]; Myr group vs ctr", "value": "about 15%"}, {"measurement": "reduction of dihydroceramide level with respect to basal ctr", "setting": "[8]; Myr group vs ctr", "value": "~25", "unit": "%"}, {"measurement": "reduction of ceramide level with respect to the group stimulated with TGFβ", "setting": "[8]; Myr/TGFβ vs TGFβ, TGFβ 5 ng/ml", "value": "~50", "unit": "%"}, {"measurement": "reduction of dihydroceramide level with respect to the group stimulated with TGFβ", "setting": "[8]; Myr/TGFβ vs TGFβ, TGFβ 5 ng/ml", "value": "~60", "unit": "%"}, {"measurement": "% proliferation (relative proliferation/vitality index)", "setting": "fibroblasts [9]", "value": "higher than 60%"}, {"measurement": "% proliferation (relative proliferation/vitality index)", "setting": "fibroblasts [9]; listed as MYR", "value": 62, "unit": "%"}, {"measurement": "increase of total cells after 24 hours", "setting": "human dermic fibroblasts [3]; after 24 hours vs T0", "value": "about 70%"}, {"measurement": "total cells after 24 hours of treatment", "setting": "human dermic fibroblasts [3]", "value": 11733, "unit": "total cells/well"}]}]}
